Values of other authors, collected in patent US11596597B2, “Depot formulation” (Cipla Limited, priority 2018, dated 2023).

Conditions: stated in words, no test described

solubility in water | Molecule
freely soluble | 7,8,9,10-tetrahydro-6,10-methano-6H-pyrazino [2,3-h] [3]-benzazepine, (2R, 3R)-2,3-dihydroxybutanedioate [Varenicline salt]
practically insoluble | c1cnc2cc3c(cc2n1)[C@@H]1CNC[C@H]3C1 [varenicline base]
